SMILES strings stand for the structures.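 Method: 48-hour compound exposure of cells in 96-well plates, five concentrations, linear interpolation of endpoints. GI50: concentration for 50% inhibition of growth. Definition used: TGI = concentration required for complete inhibition of growth.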

What all share (assay): inhibition of tumour cell growth, NCI panel, 48 h
Assay [1] concerns OVCAR-5 ovarian.
In assay [2] the test system is HCC-2998 colon.
For assay [3], the system named is UACC-62 melanoma.
Assay [4] has as its system M14 melanoma.
In assay [5] the test system is SF-268 CNS.
Assay [6] concerns MOLT-4 leukemia.
The test system of assay [7] is HCT-116 colon.
Assay [8] has as its system MDA-MB-231 breast.
Assay [9] concerns NCI-H460 lung.
The subject of assay [10] is HT29 colon.

Regarding `C[C@@H]1Cc2c(ccc3[nH]ncc23)[C@@H](c2ccc(NC3CN(CCCF)C3)cn2)N1CC(F)(F)F`, the GI50 in assay [1] was 26.4 µM; in assay [2], 17.2 µM; in [3], 15.2 µM; in assay [4], 16.5 µM; in assay [5], 22.3 µM; in assay [6], 19.6 µM. The GI50 in assay [7] is 14.5 µM; in assay [8], 17 µM; in assay [9], 18.8 µM; in [10], 13.7 µM. Also, the TGI was > 100 µM in assay [1]; 33.5 µM in assay [2]; 30.5 µM in assay [3]; 32.2 µM in assay [4]; 79.4 µM in assay [5]; > 100 µM in assay [6]. Moreover, the TGI was 28.2 µM in [7], 34.5 µM in assay [8], 37.8 µM in [9] and 43.2 µM in [10].
Consider `CN(C)Cc1cc(C(C)(C)C)cc(CN(C)C)c1O`, for which the TGI in [1] was > 100 µM; in assay [2], 52.2 µM; in assay [3], > 100 µM; in assay [4], > 100 µM; in [5], > 100 µM; in assay [6] it was > 100 µM. Also, the TGI in assay [7], in [8], in assay [9] and in [10] was > 100 µM in each case.
`COc1ccc(F)cc1-c1ccnc2[nH]c(C3=CCN(C4CCC(CC(=O)O)CC4)CC3)cc12` (stereo unspecified): the GI50 was 0.268 µM in [1]; 0.299 µM in assay [2]; 0.113 µM in assay [3]; 0.275 µM in assay [4]; 0.144 µM in assay [5]; 0.218 µM in assay [6]. In addition, the GI50 in assay [7] was 0.163 µM; in assay [8], 0.205 µM; in assay [9], 0.236 µM; in assay [10], 0.234 µM. Also, the TGI in assay [1] is > 100 µM; in [2], > 100 µM; in assay [3], 0.371 µM; in assay [4], 1.93 µM; in [5] it was 17.7 µM; in assay [6], > 100 µM. Further, the TGI in assay [7] is > 100 µM; in [9], > 100 µM; in [10], 3.93 µM.
For `CSc1nc2ccc(C)cc2cc1/C=C1/C=C(c2ccccc2)NC1=O`, the GI50 in [1] was 19.3 µM; in [2], > 100 µM; in [3], 10.8 µM; in assay [4], 5.42 µM; in [5] it was 3.16 µM; in assay [6], 15.5 µM. Further, the GI50 in assay [7] was 0.731 µM; in assay [8], 4.42 µM; in [9] it was 0.646 µM; in assay [10] it was 3.44 µM. In addition, the TGI in assay [1] is > 100 µM; in assay [2], > 100 µM; in assay [3], 48.2 µM; in assay [4] it was 78 µM; in assay [5] it was 48 µM; in assay [6], > 100 µM. For the same compound, the TGI in assay [7] was 4.07 µM; in [8] it was 36.6 µM; in [9], 10.9 µM; in assay [10] it was > 100 µM.
Consider `COC(=O)c1cc(C)[nH]c2c(C)cc3nc4ccccc4c3c12`, for which the GI50 in assay [1] was 15.6 µM; in assay [2] it was 8.99 µM; in assay [3], 5.99 µM; in assay [4], 11 µM; in assay [5], 11 µM; in [6], 4.83 µM. For the same compound, the GI50 in assay [7] was 10.2 µM; in assay [8], 2.44 µM; in assay [9], 4.25 µM; in assay [10], 3.11 µM. Further, the TGI in assay [1] is 32.7 µM; in [2] it was 23.9 µM; in [3] it was 21.1 µM; in assay [4], 23.7 µM; in [5] it was 23.8 µM; in assay [6], 42.2 µM. The TGI in assay [7] is 23 µM; in [8] it was 10.5 µM; in assay [9], 22.5 µM; in assay [10] it was 13.5 µM.
On to `C=C1C(=O)OC2(C)CCC1CC1OC1(C)CCC=C(C)CCC2O` (stereo unspecified), for which the TGI in assay [1], in assay [2], in assay [3], in [4], in assay [5] and in [6] was > 100 µM throughout. Besides, the TGI in assay [7], in [8], in assay [9] and in assay [10] was > 100 µM each time.
Consider `COc1cc2c(=O)n(CC3CCCCC3)c3c4cc[nH]c4ncc3c2cc1OC`, for which the GI50 in assay [1] is 1.74 µM; in [2], 18.7 µM; in assay [3] it was 6.01 µM; in assay [4], 4.3 µM; in assay [5], 1.4 µM; in [6] it was 5.64 µM. Further, the GI50 in assay [7] is 1.01 µM; in assay [8] it was 1.13 µM; in assay [9], 2.25 µM; in assay [10] it was 2.85 µM. For the same compound, the TGI is 24.2 µM in assay [1]; > 50 µM in [2]; > 50 µM in assay [3]; > 50 µM in assay [4]; 13.9 µM in [5]; > 50 µM in assay [6]. For the same compound, the TGI in assay [7] was determined as 12.3 µM; in assay [8] it was 7.59 µM; in assay [9], 9.41 µM; in [10], 15.2 µM.
For `CCCCCCCCc1cc(O)ccc1O`, the GI50 was 19.9 µM in [1]; 18.4 µM in [2]; 13.6 µM in assay [3]; 14.1 µM in assay [5]; 17.3 µM in [6]; 14.7 µM in assay [7]. For the same compound, the GI50 in [8] was 13 µM; in [9], 17.3 µM; in assay [10], 16.1 µM. Further, the TGI in [1] worked out at 42.8 µM; in assay [2], 34.4 µM; in assay [3] it was 26.6 µM; in assay [5] it was 31.3 µM; in assay [6], 72.8 µM; in assay [7], 27.9 µM. In addition, the TGI amounted to 27.3 µM in assay [8], 33.1 µM in assay [9] and 49.4 µM in [10].
For the compound `COc1ccc2c(c1)C=CC1C2CC[C@]2(C)C(NC(=O)/C=C/c3ccc(O)c(O)c3)CCC12` (stereo partly specified), the GI50 was 20.1 µM in [1]; 14.4 µM in assay [2]; 14.9 µM in [3]; 13.7 µM in assay [4]; 17.2 µM in [5]; 5.56 µM in assay [6]. Besides, the results for the GI50 in [7], in [8] and in [9] were 4.49 µM, 12.1 µM and 3.93 µM, respectively. Further, the TGI in assay [1] is 38.9 µM; in assay [2] it was 34.6 µM; in [3], 30.8 µM; in assay [4], 30.8 µM; in assay [5] it was 33 µM; in assay [6], 22.7 µM. Besides, the values for the TGI in [7], in assay [8] and in [9] were 17.4 µM, 25.9 µM and 14.4 µM, respectively.
As for `COC(=O)[C@@H](C)C[C@H](Cc1ccccc1)NC(=O)c1csc([C@@H](C[C@H](C(C)C)N(C)C(=O)[C@@H](NC(=O)[C@H]2CCCCN2C)C(C(F)(F)F)C(F)(F)F)OC(C)=O)n1`, the GI50 in assay [1] was 0.0643 µM; in assay [2], 0.0747 µM; in assay [3], 0.0154 µM; in assay [4], 0.0333 µM; in assay [5], 0.108 µM; in assay [6], 0.0631 µM. In addition, the GI50 in [7] was 0.057 µM; in [8] it was 0.0734 µM; in assay [9], 0.0576 µM; in assay [10], 0.0495 µM. For the same compound, the TGI in assay [1] is > 16.7 µM; in assay [2] it was > 16.7 µM; in assay [3], > 16.7 µM; in assay [4], 0.115 µM; in assay [5] it was > 16.7 µM; in [6], > 16.7 µM. Moreover, the TGI is > 16.7 µM in assay [7], 3.06 µM in [8], > 16.7 µM in [9] and 0.256 µM in assay [10].
Turning to `Cc1c(C2CCSc3ccccc3N2)sc2ccccc12` (stereo unspecified), the TGI in assay [2], in assay [3], in assay [4], in assay [5], in assay [6] and in assay [7] was > 100 µM throughout. Also, the TGI in assay [8], in assay [9] and in assay [10] was > 100 µM in each case.
With `Cc1cn2cc(-c3ccc4c(c3)CC(=O)N4)nc2s1`, the GI50 was > 100 µM in assay [1]; 46.2 µM in assay [2]; 33.7 µM in [3]; > 100 µM in assay [4]; 50.7 µM in assay [6]; 70.1 µM in assay [7]. Also, the GI50 in [8] is > 100 µM; in assay [10] it was 85.5 µM. The TGI in [1], in [2], in assay [3], in [4], in [6] and in assay [7] was > 100 µM in each case. Moreover, the TGI in [8] and in assay [10] was > 100 µM each time.
Turning to `O=C(N/N=C/c1ccc(N(CCCl)CCCl)cc1)c1ccc(C(=O)N/N=C/c2ccc(N(CCCl)CCCl)cc2)cc1`, the GI50 was 71.5 µM in assay [1]; 86.8 µM in assay [2]; 3.79 µM in assay [4]; 0.284 µM in assay [5]; 0.226 µM in [6]; 2.48 µM in assay [7]. The GI50 in assay [8] is 4.73 µM; in assay [9], 0.038 µM; in [10], 0.801 µM. For the same compound, the TGI in [1] is > 100 µM; in [2] it was > 100 µM; in [4] it was > 100 µM; in assay [5] it was 27.8 µM; in assay [6], > 100 µM; in assay [7], > 100 µM. Moreover, the TGI in assay [8], in [9] and in assay [10] was > 100 µM throughout.
`CC(=O)OC1=C(CC(C)(C)C)C(=O)c2ccccc2C1=O`: the TGI in assay [2] is > 100 µM; in assay [3], > 100 µM; in assay [4] it was > 100 µM; in assay [5], 74.9 µM; in assay [7] it was 75.5 µM; in assay [8] it was > 100 µM. In addition, the TGI in [9] is 79.3 µM; in [10] it was > 100 µM.
Consider `CC1/C(=N/O)CC(c2ccccc2)N(N=O)C1c1ccccc1` (stereo unspecified), for which the TGI in assay [2], in assay [3], in [4], in assay [5], in assay [6] and in [7] was > 100 µM in each case. The TGI in assay [8], in assay [9] and in assay [10] was > 100 µM throughout.
In the case of `C=Cc1cc(OC)c2c(c1)c(=O)oc1c2cc(OC)c2c(O)ccc(C3OC(C(C)O)C(O)C3O)c21` (stereo unspecified), the GI50 was 0.00309 µM in assay [1]; 0.013 µM in assay [2]; 0.0112 µM in [3]; 0.011 µM in assay [4]; 0.00456 µM in [5]; 0.00298 µM in assay [7]. In addition, the GI50 in assay [8] is 0.0438 µM; in assay [9], 0.00573 µM; in assay [10], 0.00666 µM. Further, the TGI in assay [1] amounted to 0.0969 µM; in assay [2] it was 0.0422 µM; in assay [3], 0.0296 µM; in assay [4], 0.0302 µM; in [5], 0.117 µM; in [7] it was 0.205 µM. The figures for the TGI in assay [8], in assay [9] and in assay [10] were > 1 µM, 0.166 µM and > 1 µM, respectively.
Take `Cn1cc(-c2csc(-c3cn(C(=O)OC(C)(C)C)c4ccccc34)n2)c2cccnc21`: the GI50 in assay [1] was 14.6 µM; in [2], 10.2 µM; in [3] it was 7.8 µM; in assay [4], 7.36 µM; in [5] it was 8.01 µM; in assay [6], 8.88 µM. Also, the figures for the GI50 in assay [7], in assay [8] and in assay [9] were 4.7 µM, 5.3 µM and 3.92 µM, respectively. The TGI in assay [1] turned out to be 29.9 µM; in [2], 25.3 µM; in assay [3], 22.4 µM; in assay [4], 22.7 µM; in [5] it was 35.3 µM; in [6], 46.8 µM. Moreover, the figures for the TGI in assay [7], in assay [8] and in assay [9] were 17.8 µM, 20 µM and 17.7 µM, respectively.

The values are drawn from PubChem BioAssay (NCI).
